# Laboratory results: patent publication US9302999B2, “Substituted triazoles as herbicides” (E. I. DU PONT DE NEMOURS AND COMPANY, priority 2012, dated 2016)
# How the values were obtained:
# Format in all cases: in vivo
# [1] = test system: barnyardgrass (Echinochloa crus-galli); assay: Test A pre-/postemergence: barnyardgrass; settings: for Barnyardgrass plant response rating: Postemergence; for Plant response rating, Barnyardgrass: Preemergence
# Method in brief: (§1)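 Injury is scored visually on a scale where 0 means no effect and 100 complete control, comparing treated with untreated plants after approximately ten greenhouse days. Both preemergence and postemergence applications are made at the same time.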
# [2] = test system: crabgrass, large (large crabgrass, Digitaria sanguinalis); assay: Test A pre-/postemergence: crabgrass, large; settings: for Crabgrass, Large plant response rating: Postemergence; for Plant response rating, Crabgrass, Large: Preemergence
# Method in brief: as §1
# [3] = test system: foxtail, giant (giant foxtail, Setaria faberii); assay: Test A pre-/postemergence: foxtail, giant; settings: for Foxtail, Giant plant response rating: Postemergence; for Plant response rating, Foxtail, Giant: Preemergence
# Method in brief: as §1
# [4] = test system: morningglory (Ipomoea spp.); assay: Test A pre-/postemergence: morningglory
# Method in brief: as §1
# [5] = test system: pigweed (Amaranthus retroflexus); assay: Test A pre-/postemergence: pigweed
# Method in brief: as §1
# [6] = test system: velvetleaf (Abutilon theophrasti); assay: Test A pre-/postemergence: velvetleaf
# Method in brief: as §1
# [7] = test system: wheat (Triticum aestivum); assay: Test A pre-/postemergence: wheat
# Method in brief: as §1
# corn (Zea mays) = assay: Test A pre-/postemergence: corn; settings: for Corn plant response rating: Postemergence; for Plant response rating, Corn: Preemergence
# Method in brief: as §1
# rice (Oryza sativa) = assay: Test B flooded paddy: rice; settings: Flood; 250 g ai/ha; applied to paddy water at 2-leaf stage; visually evaluated after 13 to 15 days
# Method in brief: (§2)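 Paddy-water application: seedlings at 2-leaf stage, flood depth 3 cm maintained for the test duration. Evaluation after 13–15 days in the greenhouse by eye relative to controls; 0–100 scale.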
# [8] = test system: sedge, umbrella (small-flower umbrella sedge Cyperus difformis); assay: Test B flooded paddy: sedge, umbrella; settings: Flood; 250 g ai/ha; applied to paddy water at 2-leaf stage; visually evaluated after 13 to 15 days
# Method in brief: as §2
# [9] = test system: ducksalad (Heteranthera limosa); assay: Test B flooded paddy: ducksalad; settings: Flood; 250 g ai/ha; applied to paddy water at 2-leaf stage; visually evaluated after 13 to 15 days
# Method in brief: as §2
# [10] = test system: barnyardgrass (Echinochloa crus-galli); assay: Test B flooded paddy: barnyardgrass; settings: Flood; 250 g ai/ha; applied to paddy water at 2-leaf stage; visually evaluated after 13 to 15 days
# Method in brief: as §2
# [11] = 125 g ai/ha, 0 to 100 scale, 0 is no effect, 100 is complete control
# [12] = 500 g ai/ha, visual rating on 0 to 100 scale (0 no effect, 100 complete control), approximately ten days
# [13] = 125 g ai/ha, 0 to 100 scale (0 no effect, 100 complete control)
# [14] = 500 g ai/ha, 0 to 100 scale, 0 is no effect, 100 is complete control
# [15] = Postemergence, 125 g ai/ha, 0 to 100 scale, 0 is no effect, 100 is complete control
# [16] = Postemergence, 500 g ai/ha, visual rating on 0 to 100 scale (0 no effect, 100 complete control), approximately ten days
# [17] = Preemergence, 125 g ai/ha, 0 to 100 scale (0 no effect, 100 complete control)
# [18] = Preemergence, 500 g ai/ha, 0 to 100 scale, 0 is no effect, 100 is complete control
# [19] = 125 g ai/ha, 0 to 100 scale where 0 is no effect and 100 is complete control
# [20] = 500 g ai/ha, 0 to 100 scale (0 no effect, 100 complete control)
# [21] = Preemergence, 125 g ai/ha, 0 to 100 scale where 0 is no effect and 100 is complete control
# [22] = Preemergence, 500 g ai/ha, 0 to 100 scale (0 no effect, 100 complete control)
smiles,measurement,setting,value
Cc1nn(-c2ccnc(Cl)c2)nc1C(=O)c1cccc(C(F)(F)F)c1 [Compound 4],Barnyardgrass plant response rating,[1]; [11],20
same,Barnyardgrass plant response rating,[1]; [12],30
same,"Plant response rating, Barnyardgrass",[1]; [13],10
same,"Plant response rating, Barnyardgrass",[1]; [14],60
same,"Crabgrass, Large plant response rating",[2]; [11],30
same,"Crabgrass, Large plant response rating",[2]; [12],70
same,"Plant response rating, Crabgrass, Large",[2]; [13],80
same,"Plant response rating, Crabgrass, Large",[2]; [14],90
same,"Foxtail, Giant plant response rating",[3]; [11],20
same,"Foxtail, Giant plant response rating",[3]; [12],40
same,"Plant response rating, Foxtail, Giant",[3]; [13],80
same,"Plant response rating, Foxtail, Giant",[3]; [14],100
same,Morningglory plant response rating,[4]; [15],20
same,Morningglory plant response rating,[4]; [16],40
same,"Plant response rating, Morningglory",[4]; [17],0
same,"Plant response rating, Morningglory",[4]; [18],40
same,Pigweed plant response rating,[5]; [15],80
same,Pigweed plant response rating,[5]; [16],100
same,"Plant response rating, Pigweed",[5]; [17],50
same,"Plant response rating, Pigweed",[5]; [18],100
same,Velvetleaf plant response rating,[6]; [15],30
same,Velvetleaf plant response rating,[6]; [16],30
same,"Plant response rating, Velvetleaf",[6]; [17],0
same,"Plant response rating, Velvetleaf",[6]; [18],0
same,Wheat plant response rating,[7]; [15],20
same,Wheat plant response rating,[7]; [16],40
same,"Plant response rating, Wheat",[7]; [17],0
same,"Plant response rating, Wheat",[7]; [18],30
same,Corn plant response rating,corn (Zea mays); [11],20
same,Corn plant response rating,corn (Zea mays); [12],30
same,"Plant response rating, Corn",corn (Zea mays); [13],0
same,"Plant response rating, Corn",corn (Zea mays); [14],0
same,"Plant response rating, Rice (0 to 100 scale, 0 is no effect, 100 is complete control)",rice (Oryza sativa),0
same,"Plant response rating, Sedge, Umbrella (0 to 100 scale, 0 is no effect, 100 is complete control)",[8],70
same,"Plant response rating, Ducksalad (0 to 100 scale, 0 is no effect, 100 is complete control)",[9],40
same,"Plant response rating, Barnyardgrass (0 to 100 scale, 0 is no effect, 100 is complete control)",[10],20
Cc1nn(-c2ccc(F)cc2)nc1Oc1ccc(F)c(C(F)(F)F)c1 [Compound 56],Barnyardgrass plant response rating,[1]; [11],10
same,Barnyardgrass plant response rating,[1]; [12],30
same,"Plant response rating, Barnyardgrass",[1]; [13],0
same,"Plant response rating, Barnyardgrass",[1]; [14],80
same,"Crabgrass, Large plant response rating",[2]; [11],50
same,"Crabgrass, Large plant response rating",[2]; [12],80
same,"Plant response rating, Crabgrass, Large",[2]; [13],90
same,"Plant response rating, Crabgrass, Large",[2]; [14],100
same,"Foxtail, Giant plant response rating",[3]; [11],20
same,"Foxtail, Giant plant response rating",[3]; [12],80
same,"Plant response rating, Foxtail, Giant",[3]; [13],30
same,"Plant response rating, Foxtail, Giant",[3]; [14],100
same,"Plant response rating, Morningglory",[4]; [17],0
same,"Plant response rating, Morningglory",[4]; [18],10
same,Pigweed plant response rating,[5]; [15],100
same,Pigweed plant response rating,[5]; [16],100
same,"Plant response rating, Pigweed",[5]; [17],30
same,"Plant response rating, Pigweed",[5]; [18],90
same,Velvetleaf plant response rating,[6]; [15],40
same,Velvetleaf plant response rating,[6]; [16],90
same,"Plant response rating, Velvetleaf",[6]; [17],0
same,"Plant response rating, Velvetleaf",[6]; [18],10
same,Wheat plant response rating,[7]; [15],10
same,Wheat plant response rating,[7]; [16],20
same,"Plant response rating, Wheat",[7]; [17],0
same,"Plant response rating, Wheat",[7]; [18],10
same,Corn plant response rating,corn (Zea mays); [11],10
same,Corn plant response rating,corn (Zea mays); [12],20
same,"Plant response rating, Corn",corn (Zea mays); [13],0
same,"Plant response rating, Corn",corn (Zea mays); [14],10
same,"Plant response rating, Rice (0 to 100 scale, 0 is no effect, 100 is complete control)",rice (Oryza sativa),40
same,"Plant response rating, Sedge, Umbrella (0 to 100 scale, 0 is no effect, 100 is complete control)",[8],80
same,"Plant response rating, Ducksalad (0 to 100 scale, 0 is no effect, 100 is complete control)",[9],80
same,"Plant response rating, Barnyardgrass (0 to 100 scale, 0 is no effect, 100 is complete control)",[10],30
CCc1nn(-c2ccc(F)cc2)nc1Cc1cccc(C(F)(F)F)c1 [Compound 144],Barnyardgrass plant response rating,[1]; [11],10
same,Barnyardgrass plant response rating,[1]; [12],30
same,"Plant response rating, Barnyardgrass",[1]; [19],0
same,"Plant response rating, Barnyardgrass",[1]; [20],30
same,"Crabgrass, Large plant response rating",[2]; [11],50
same,"Crabgrass, Large plant response rating",[2]; [12],90
same,"Plant response rating, Crabgrass, Large",[2]; [19],50
same,"Plant response rating, Crabgrass, Large",[2]; [20],100
same,"Foxtail, Giant plant response rating",[3]; [11],30
same,"Foxtail, Giant plant response rating",[3]; [12],90
same,"Plant response rating, Foxtail, Giant",[3]; [19],50
same,"Plant response rating, Foxtail, Giant",[3]; [20],100
same,"Plant response rating, Morningglory",[4]; [15],20
same,Morningglory plant response rating,[4]; [16],90
same,"Plant response rating, Morningglory",[4]; [21],0
same,"Plant response rating, Morningglory",[4]; [22],0
same,"Plant response rating, Pigweed",[5]; [15],100
same,Pigweed plant response rating,[5]; [16],100
same,"Plant response rating, Pigweed",[5]; [21],50
same,"Plant response rating, Pigweed",[5]; [22],100
same,"Plant response rating, Velvetleaf",[6]; [15],40
same,Velvetleaf plant response rating,[6]; [16],50
same,"Plant response rating, Velvetleaf",[6]; [21],0
same,"Plant response rating, Velvetleaf",[6]; [22],0
same,"Plant response rating, Wheat",[7]; [15],0
same,Wheat plant response rating,[7]; [16],20
same,"Plant response rating, Wheat",[7]; [21],0
same,"Plant response rating, Wheat",[7]; [22],0
same,Corn plant response rating,corn (Zea mays); [11],10
same,Corn plant response rating,corn (Zea mays); [12],30
same,"Plant response rating, Corn",corn (Zea mays); [19],0
same,"Plant response rating, Corn",corn (Zea mays); [20],0
same,"Plant response rating, Rice (0 to 100 scale, 0 is no effect, 100 is complete control)",rice (Oryza sativa),20
same,"Plant response rating, Sedge, Umbrella (0 to 100 scale, 0 is no effect, 100 is complete control)",[8],80
same,"Plant response rating, Ducksalad (0 to 100 scale, 0 is no effect, 100 is complete control)",[9],40
same,"Plant response rating, Barnyardgrass (0 to 100 scale, 0 is no effect, 100 is complete control)",[10],30
Cc1nn(-c2ccc(F)cc2Cl)nc1Cc1ccnc(C(F)(F)F)c1 [Compound 65],Barnyardgrass plant response rating,[1]; [11],10
same,Barnyardgrass plant response rating,[1]; [12],40
same,"Plant response rating, Barnyardgrass",[1]; [13],10
same,"Plant response rating, Barnyardgrass",[1]; [14],70
same,"Crabgrass, Large plant response rating",[2]; [11],20
same,"Crabgrass, Large plant response rating",[2]; [12],50
same,"Plant response rating, Crabgrass, Large",[2]; [13],30
same,"Plant response rating, Crabgrass, Large",[2]; [14],100
same,"Foxtail, Giant plant response rating",[3]; [11],20
same,"Foxtail, Giant plant response rating",[3]; [12],70
same,"Plant response rating, Foxtail, Giant",[3]; [13],90
same,"Plant response rating, Foxtail, Giant",[3]; [14],100
same,"Plant response rating, Morningglory",[4]; [17],10
same,"Plant response rating, Morningglory",[4]; [18],20
same,Pigweed plant response rating,[5]; [15],90
same,Pigweed plant response rating,[5]; [16],100
same,"Plant response rating, Pigweed",[5]; [17],80
same,"Plant response rating, Pigweed",[5]; [18],100
same,Velvetleaf plant response rating,[6]; [15],30
same,Velvetleaf plant response rating,[6]; [16],60
same,"Plant response rating, Velvetleaf",[6]; [17],0
same,"Plant response rating, Velvetleaf",[6]; [18],10
same,Wheat plant response rating,[7]; [15],0
same,Wheat plant response rating,[7]; [16],20
same,"Plant response rating, Wheat",[7]; [17],0
same,"Plant response rating, Wheat",[7]; [18],0
same,Corn plant response rating,corn (Zea mays); [11],10
same,Corn plant response rating,corn (Zea mays); [12],20
same,"Plant response rating, Corn",corn (Zea mays); [13],0
same,"Plant response rating, Corn",corn (Zea mays); [14],10
same,"Plant response rating, Rice (0 to 100 scale, 0 is no effect, 100 is complete control)",rice (Oryza sativa),25
same,"Plant response rating, Sedge, Umbrella (0 to 100 scale, 0 is no effect, 100 is complete control)",[8],75
same,"Plant response rating, Ducksalad (0 to 100 scale, 0 is no effect, 100 is complete control)",[9],60
same,"Plant response rating, Barnyardgrass (0 to 100 scale, 0 is no effect, 100 is complete control)",[10],30
